The test system of data set [1] is Baf3 murine leukemia cells Wt. As to the kind of experiment: Blast cell count in nude mice implanted with Baf3 Wt cells. In kind it is in vivo. Particulars: Baf3Wt; Imatinib 10 mg/kg, AN019 20 mg/kg, AN024 20 mg/kg, oral gavage or ip from day 15; day 42. From the text:
(§1) Blood smears were obtained via the tail vein or via the femoral vein every 6th day and blast cells counted and graphically represented.
(§2) Abdominal swelling and decrease in activity was monitored daily, blood smear taken via the tail vein or the femoral vein every 6th day and H&E stained as per standard protocols. 42 days after implantation, mice were sacrificed and spleens harvested.
(§3) Blood from tail vein or the femoral vein was taken every 6th day from Baf3 cell implanted mice until day 42.
(§4) Nude mice were intraperitoneally implanted with Baf3 mutant cells (wt, T315I, M351T or E255K). […] Blood was drawn from the femoral vein or tail vein every 6th day and blast cell count determined and graphically represented.

Data set [2] relates to Baf3 murine leukemia cells T315I. Briefly: Blast cell count in nude mice implanted with Baf3 T315I cells. In kind it is in vivo. The conditions noted are these: Baf3T315I; Imatinib 10 mg/kg, AN019 20 mg/kg, AN024 20 mg/kg, oral gavage or ip from day 15; day 42.
Excerpt: as §1, §2, §3, §4

Data set [3] has as its system Baf3 murine leukemia cells M351T. As to the kind of experiment: Blast cell count in nude mice implanted with Baf3 M351T cells. Particulars: Baf3M351T; Imatinib 10 mg/kg, AN019 20 mg/kg, AN024 20 mg/kg, oral gavage or ip from day 15; day 42. In kind it is in vivo.
Excerpt: as §1, §2, §3, §4

For data set [4], the system named is Baf3 murine leukemia cells E255K. Briefly: Blast cell count in nude mice implanted with Baf3 E255K cells. Particulars: Baf3E255K (printed E225K); Imatinib 10 mg/kg, AN019 20 mg/kg, AN024 20 mg/kg, oral gavage or ip from day 15; day 42. Type of data set: in vivo.
Excerpt: as §1, §2, §3, §4

Data set [5] deals with K562luc cells. As to the kind of experiment: Determination of drug temporal penetrance (Tp). Type of data set: in vivo, nude mice. Particulars: daily ip from day 15 to day 35, imaged till day 45; AN019 20 mg/kg, AN024 20 mg/kg, Imatinib 10 mg/kg. The protocol:
The temporal penetrance was calculated applying the following equation, […].
P=photon counts at day ‘a’, day ‘ter’, or day ‘b’ where ‘a’ is the day when drug treatment was stopped and ‘ter’ is the day when the experiment was terminated and ‘b’ is the day where P is minimum after day a but before day ‘ter’.
n=number of animals alive when P was measured.
The animals were imaged at 6 day intervals post transplantation. […] Drug treatment was stopped on day 35 and animals were imaged till day 45, and calculated as described in methods.

Data set [6] concerns ZR71 breast cancer cells. As to the kind of experiment: In vitro angiogenic assay, ZR-71 conditioned media on human dermal endothelial cells. Type of data set: cell-based. The conditions noted are these: ZR-71 cells, radiation status not specified. The protocol:
(§5) The in vitro angiogenesis of 4910, 5310 and U87 glioma cells and MDAMB231 and ZR71 breast cancer cells in the presence of specified concentrations of compounds were determined as follows, cells (2×10^4/well) were seeded in 8-well chamber slides and were treated with various concentrations of test compounds. After a 24 h incubation period, the conditioned media was removed and added to a 4×10^4 human dermal endothelial cell (monolayer in 8-well chamber slides) and the human dermal endothelial cells were allowed to grow for 72 h. Cells were then fixed in 3.7% formaldehyde and stained with H&E and photographed.

The subject of data set [7] is MDAMB231 breast cancer cells. Briefly: In vitro angiogenic assay, MDA-MB-231 conditioned media on human dermal endothelial cells. The conditions noted are these: MDA-MB-231 cells. In kind it is cell-based. The protocol:
as §5

The test system of data set [8] is 4910 glioma cells. As to the kind of experiment: In vitro angiogenic assay, 4910 conditioned media on human dermal endothelial cells. In kind it is cell-based. Particulars: 4910 cells. The protocol: as §5
Data set [9] relates to AKT, ERK and Pi3k in ZR71 breast cancer cells. Briefly: Western blot analysis, ZR71. Type of data set: cell-based. Particulars: 24 h. The protocol:
(§6) Western blot analysis of 4910, 5310 and U87 glioma cells and MDAMB231 and ZR71 breast cancer cells in the presence of specified concentrations of compounds were assessed as per standard protocols. Cells were treated with AN019, AN024 or Temozolomide at the specified concentrations. 24 h after treatment, cells were collected and cell lysates extracted. Equal quantities of proteins were fractionated by SDS-PAGE. The fractionated proteins were blotted on to nylon membranes and immunoprobed for AKT, ERK and Pi3k. Breast cancer cell protein isolates were additionally immunoprobed for EGFR, ErbB1, ErbB2 and ErbB3.

The subject of data set [10] is AKT, ERK and Pi3k in 5310 glioma cells. As to the kind of experiment: Western blot analysis, 5310. In kind it is cell-based. The conditions noted are these: for PI3k levels: 24 h. The protocol: as §6
For orientation: In western blotting, separated proteins are transferred to a membrane and probed.

The test system of data set [11] is pAKT and pERK in glioma and breast cancer cells. Briefly: Western blot analysis of pAKT and pERK, cell line not stated. Type of data set: cell-based. Particulars: for pERK levels: both with and without radiation. The protocol: as §6
Data set [12] deals with K562 luciferase expressing cells. As to the kind of experiment: Leukemic survival study. In kind it is in vivo, nude mice. From the text:
K562 luciferase expressing cells were implanted intraperitoneally into nude mice; the mice were scanned using the xenogeny IVIS image station after ip injections of luciferin does determine implantations. Drug treatment was started as in previous studies day 15 after implantation. The animals were given treatment till day 42, after which drug treatment was stopped and survival of the animals determined as per the animal care regulations. […] Drug treatment was withdrawn on day 42 post implantation and survival of animals determined.

In data set [13] the test system is K562. As to the kind of experiment: ED50 and therapeutic index in leukemic mice (K562). Type of data set: in vivo. Particulars: po, mice.
The test system of data set [14] is 4910 human glioma xenograft cells. Briefly: Glioma radiation studies, intracranial tumours. In kind it is in vivo, nude mice. The protocol: Nude mice were intracranially implanted with 4910 human glioma xenograft cells (1×10^6 cells) intracranially. Ten days after implantation mice were treated with AN019, AN024 or temozolomide with or without radiation (5 Gy/week). The experiment was terminated at day 40 post implantation.

For data set [15], the system named is 5310 glioma cells. As to the kind of experiment: In vitro angiogenic assay, 5310 conditioned media on human dermal endothelial cells. Type of data set: cell-based. The conditions noted are these: 5310 cells. The protocol:
as §5

Results on two compounds are retold here after patent US7939541B2, “Intermediates and a process employing the intermediates for the preparation of (3-trifluoromethylsulfonyl)-N-[4-methyl-3-(4-pyridin-3yl-pyrimidin-2ylamino)-phenyl]-benzamide” (Natco Pharma Limited, priority 2004, dated 2011).

Structures are written as SMILES.

Regarding `Cc1ccc(NC(=O)c2cc(C(F)(F)F)cc(C(F)(F)F)c2)cc1Nc1nccc(-c2cccnc2)n1` [AN019], the “blast cell count in blood smears” value in [1] is “complete regression of leukemic blast cells”; in [2] it was “significant decrease in blast cell count”; in [3], “significant decrease in blast cell count”; in data set [4] it was “significant decrease in blast cell count”. The “temporal penetrance (Tp)” value in data set [5] came to 2.0. In addition, the inhibition of angiogenesis entry in [6] is on record as “complete inhibition of angiogenesis”; in data set [7] (with radiation), “slight inhibition”; in data set [8] (with radiation), “increase in angiogenic inhibition after radiation”. In addition, the AKT levels entry in data set [9] (ZR71, after radiation) is listed as “enhanced after radiation”; in data set [9] (ZR71, without radiation), “decrease in AKT levels”. Besides, the PI3k levels result in data set [9] (ZR71, with radiation) is “absent”; in data set [9] (ZR71, without radiation), “absent”; in data set [10] (5310, after radiation treatment), “reappeared after radiation treatment”; in [10] (5310, without radiation), “almost undetectable”. The AKT expression levels result in data set [10] (5310, 24 h) is listed as “decrease in AKT expression levels”. Further, the pERK levels result in [11] is given as “reduced significantly”. The “blast cell count from blood smears after withdrawal of drug treatment” value in data set [12] (drug treatment withdrawn on day 42 (FIG. 6C)) was “showed effectiveness after withdrawal of drug treatment”. Also, in data set [12] (of 10 animals, treatment day 15 to day 42, then withdrawn, AN024 read on day 55), the “animals showing no signs of leukemia / complete absence of leukemic symptoms” value was determined as 7 animals. Also, the “mortality (day post implantation)” value in [12] (treatment day 15 to day 42, then withdrawn) is given as “did not show any mortality”. Besides, in data set [13], the “ED50 (po) Mice” value came to 11.5 mg/kg. In addition, the “intracranial tumours (size, appearance)” value in [14] (without radiation) was “tumours similar to AN024 treated animals”. Where the note is “Maximum Tolerated Dose”, the “MTD Mice” value was 500 mg/kg. In addition, under “po”, the “LD50 (po) Mice” value was 1133 mg/kg.

On to `Cn1nnc2c(C(N)=O)ncn2c1=O` [Temozolomide, reference compound], for which the inhibition of angiogenesis entry in data set [6] is reported as “complete inhibition of angiogenesis”; in [7] (control condition (without radiation)) it was “only a slight inhibition”; in data set [7] (with radiation) it was “increase in inhibition after radiation”; in data set [8] (with radiation) it was “significant inhibition of angiogenesis”; in data set [8] (without radiation) it was “significant inhibition of angiogenesis”; in data set [15] (after radiation treatment), “angiogenesis was promoted”. In data set [15] (control conditions (without radiation)), the inhibition of angiogenesis result is on record as “inhibition of angiogenesis was seen”. Also, the pERK levels entry in data set [11] is given as “did not show any significant change”. The pAKT levels result in data set [11] (with or without radiation) is listed as “did not show any significant change”. In addition, the “intracranial tumours (size, appearance)” value in data set [14] (with radiation (5 Gy/week)) is “further regression in tumor size”; in data set [14] (without radiation), “reduction in intracranial tumours”.
